Data reported in US20230151025A1, “SUBSTITUTED THIAZOLOPYRIDINES, SALTS THEREOF AND THEIR USE AS HERBICIDALLY ACTIVE SUBSTANCES” (Bayer Aktiengesellschaft, priority 2020, published 2023).

Experiments:
Type in all cases: in vivo
Stellaria media (STEME) [1] = test: Herbicidal pre-emergence action (A), 1280 g/ha; conditions: visual grading after ca. 3 weeks vs untreated controls
Description: (§1) ABUTH: Abutilon theophrasti AGSTE: Agrostis tenuis ALOMY: Alopecurus myosuroides AMARE Amaranthus retroflexus DIGSA: Digitaria sanguinalis ECHCG: Echinochloa crus-galli KCHSC: Kochia scoparia LOLRI: Lolium rigidum MATIN: Matricaria inodora POAAN: Poa annua POLCO: Polygonum convolvulus SETVI: Setaria viridis STEME: Stellaria media VERPE: Veronica persica VIOTR: Viola tricolor
(§2) Seeds of mono- and dicotyledonous weed plants were sown in plastic pots (double sowings with one species of mono- and one species of dicotyledonous weed plants per pot), in sandy loam, and covered with soil. The compounds according to the invention, formulated in the form of wettable powders (WP) or as emulsifiable concentrates (EC), were applied to the surface of the covering soil as aqueous suspension or emulsion, with the addition of 0.5% of an additive, at an application rate of 600 l of water per hectare (converted). Following treatment, the pots were placed in a greenhouse and kept under optimum growth conditions for the test plants. The visual grading of the damage to the test plants was carried out after ca. 3 weeks in comparison to untreated controls (herbicidal effect in percent (%): 100% effect=plants have died off, 0% effect=as control plants).
(§3) Tables A1 to A12, below, show the effects of selected compounds of the general formula (I) according to table 1 on various harmful plants and an application rate corresponding to 1280 g/ha obtained by the experimental procedure mentioned above.

[2] = test system: Amaranthus retroflexus (AMARE); test: Herbicidal post-emergence action (B), 1280 g/ha; conditions: rated visually after about 3 weeks vs untreated controls
Description: as §1
(§4) Seeds of mono- and dicotyledonous weed plants were placed in plastic pots in sandy loam soil (doubly sown with in each case one species of mono- or dicotyledonous weed plants per pot), covered with soil and cultivated in a greenhouse under controlled growth conditions. 2 to 3 weeks after sowing, the test plants were treated at the one-leaf stage. The compounds of the invention, formulated in the form of wettable powders (WP) or as emulsion concentrates (EC), were applied onto the green parts of the plants as aqueous suspension or emulsion with addition of 0.5% additive at a water application rate of 600 liters per hectare (converted). After the test plants had been kept in the greenhouse under optimum growth conditions for about 3 weeks, the activity of the preparations was rated visually in comparison to untreated controls. For example, 100% activity=the plants have died, 0% activity=like control plants.
(§5) Tables B1 to B12, below, show the effects of selected compounds of the general formula (I) according to table 1 on various harmful plants and an application rate corresponding to 1280 g/ha obtained by the experimental procedure mentioned above.

Veronica persica (VERPE) [3] = test: Herbicidal post-emergence action (B), 1280 g/ha
Description: as §1, §4, §5

[4] = test system: Kochia scoparia (KCHSC; Bassia scoparia); test: Herbicidal post-emergence action (B), 1280 g/ha
Description: as §1, §4, §5

Stellaria media (STEME) [5] = test: Herbicidal post-emergence action (B), 1280 g/ha
Description: as §1, §4, §5

Poa annua (POAAN) [6] = test: Herbicidal pre-emergence action (A), 1280 g/ha; conditions: visual grading after ca. 3 weeks vs untreated controls, 100% = plants have died off, 0% = as control plants
Description: as §1, §2, §3

[7] = test system: Amaranthus retroflexus (AMARE); test: Herbicidal pre-emergence action (A), 1280 g/ha; conditions: visual grading after ca. 3 weeks vs untreated controls
Description: as §1, §2, §3

Setaria viridis (SETVI) = test: Herbicidal pre-emergence action (A), 1280 g/ha; conditions: visual grading after ca. 3 weeks vs untreated controls
Description: as §1, §2, §3

[8] = test system: Echinochloa crus-galli (ECHCG); test: Herbicidal pre-emergence action (A), 1280 g/ha; conditions: visual grading after ca. 3 weeks vs untreated controls, 100% = plants have died off, 0% = as control plants
Description: as §1, §2, §3

[9] = test system: Kochia scoparia (KCHSC; Bassia scoparia); test: Herbicidal pre-emergence action (A), 1280 g/ha; conditions: visual grading after ca. 3 weeks vs untreated controls
Description: as §1, §2, §3

Veronica persica (VERPE) [10] = test: Herbicidal pre-emergence action (A), 1280 g/ha; conditions: visual grading after ca. 3 weeks vs untreated controls
Description: as §1, §2, §3

[11] = test system: Matricaria inodora (MATIN); test: Herbicidal pre-emergence action (A), 1280 g/ha; conditions: visual grading after ca. 3 weeks vs untreated controls
Description: as §1, §2, §3

[12] = test system: Digitaria sanguinalis (DIGSA); test: Herbicidal pre-emergence action (A), 1280 g/ha; conditions: visual grading after ca. 3 weeks vs untreated controls, 100% = plants have died off, 0% = as control plants
Description: as §1, §2, §3

[13] = test system: Alopecurus myosuroides (ALOMY); test: Herbicidal pre-emergence action (A), 1280 g/ha; conditions: visual grading after ca. 3 weeks vs untreated controls, 100% = plants have died off, 0% = as control plants
Description: as §1, §2, §3

Lolium rigidum (LOLRI) = test: Herbicidal pre-emergence action (A), 1280 g/ha; conditions: visual grading after ca. 3 weeks vs untreated controls, 100% = plants have died off, 0% = as control plants
Description: as §1, §2, §3

Poa annua (POAAN) [14] = test: Herbicidal post-emergence action (B), 1280 g/ha; conditions: rated visually after about 3 weeks vs untreated controls
Description: as §1, §4, §5

| Compound | herbicidal effect STEME (Stellaria media (STEME) [1]) [%] | herbicidal activity AMARE [2] [%] | herbicidal effect VERPE (Veronica persica (VERPE) [3]) [%] | POAAN, herbicidal effect in percent (%) (Poa annua (POAAN) [6]) | herbicidal effect SETVI (Setaria viridis (SETVI)) [%] | also measured |
| --- | --- | --- | --- | --- | --- | --- |
| Cc1cnsc1-c1nc2ncsc2cc1Br [Example I-202] | 100 | – | – | – | – | – |
| COc1nc2nc(-c3ccccc3)c(C)cc2s1 [Example I-006] | – | 90 | 90 | – | – | – |
| Cc1cc2sc([S+](C)[O-])nc2nc1-c1cccc(F)c1 (stereo not drawn) [Example I-039] | – | – | – | – | – | herbicidal effect KCHSC [4]: 90%; herbicidal effect STEME (Stellaria media (STEME) [5]): 90% |
| Cc1cc2sc(S(C)(=O)=O)nc2nc1-c1ccccc1 [Example I-080] | 100 | – | 90 | 100 | – | – |
| Cc1cc2sc(S)nc2nc1C1=CCCCC1 [Example I-174] | – | – | – | 100 | – | herbicidal effect AMARE [7]: 100% |
| Cc1nc2nc(-c3ccccc3F)ccc2s1 [Example I-019] | 90 | – | – | – | – | herbicidal effect STEME (Stellaria media (STEME) [5]): 90% |
| Cc1ncsc1-c1nc2nc(S)sc2cc1Br [Example I-209] | – | 90 | 90 | – | – | – |
| CCc1cc2sc(SC)nc2nc1-c1ccccc1C [Example I-106] | 100 | – | – | – | 100 | – |
| Cc1scc(-c2ccc3scnc3n2)c1C [Example I-201] | 100 | – | – | – | 90 | ECHCG, herbicidal effect in percent (%) [8]: 100%; herbicidal effect KCHSC [9]: 90%; herbicidal effect STEME (Stellaria media (STEME) [5]): 90% |
| Cc1ncsc1-c1nc2ncsc2cc1Br [Example I-204] | 90 | – | 90 | 90 | 100 | herbicidal effect AMARE [7]: 90%; ECHCG, herbicidal effect in percent (%) [8]: 90% |
| Cc1cc2sc([S+](C)[O-])nc2nc1-c1ccccc1Cl (stereo not drawn) [Example I-024] | 100 | – | – | – | – | herbicidal effect KCHSC [9]: 100%; herbicidal effect VERPE (Veronica persica (VERPE) [10]): 90%; herbicidal effect KCHSC [4]: 90% |
| Cc1nc2nc(-c3ccccc3)c(C)cc2s1 [Example I-115] | 100 | – | – | 100 | 100 | ECHCG, herbicidal effect in percent (%) [8]: 100%; herbicidal effect MATIN [11]: 90% |
| Cc1nc2nc(-c3cc(Br)sc3C)c(Br)cc2s1 [Example I-142] | – | – | – | 100 | – | herbicidal effect MATIN [11]: 100% |
| Cc1cc(-c2nc3ncsc3cc2C)c(C)s1 [Example I-197] | – | – | 90 | 100 | 100 | herbicidal effect AMARE [7]: 90%; herbicidal effect KCHSC [9]: 90% |
| O=C(O)CNc1nc2nc(-c3ccccc3F)c(Br)cc2s1 [Example I-052] | – | 100 | – | – | – | – |
| Cc1cnsc1-c1nc2nc(S)sc2cc1Br [Example I-208] | – | 100 | 90 | – | – | – |
| Cc1nc2nc(-c3ccccc3Cl)c(C)cc2s1 [Example I-103] | 100 | – | – | 90 | 90 | DIGSA, herbicidal effect in percent (%) [12]: 90%; ECHCG, herbicidal effect in percent (%) [8]: 90% |
| Cc1cc2sc(Cc3ccccc3F)nc2nc1-c1ccccc1F [Example I-073] | 90 | – | – | 100 | – | – |

| Compound | herbicidal effect STEME (Stellaria media (STEME) [1]) [%] | herbicidal activity AMARE [2] [%] | herbicidal effect VERPE (Veronica persica (VERPE) [3]) [%] | POAAN, herbicidal effect in percent (%) (Poa annua (POAAN) [6]) | herbicidal effect SETVI (Setaria viridis (SETVI)) [%] | also measured |
| --- | --- | --- | --- | --- | --- | --- |
| Cc1cc2scnc2nc1-c1scnc1C [Example I-203] | 90 | 90 | – | – | 100 | herbicidal effect AMARE [7]: 90%; ECHCG, herbicidal effect in percent (%) [8]: 100%; herbicidal effect STEME (Stellaria media (STEME) [5]): 90% |
| Cc1nc2nc(-c3ccc(F)cc3)c(C)cc2s1 [Example I-090] | – | 100 | – | – | – | herbicidal effect STEME (Stellaria media (STEME) [5]): 90% |
| CCOc1nc2nc(-c3ccccc3F)c(Br)cc2s1 [Example I-101] | – | – | 90 | – | – | – |
| Cc1ncccc1-c1nc2ncsc2cc1Br [Example I-129] | – | – | – | 100 | 100 | ALOMY, herbicidal effect in percent (%) [13]: 90%; herbicidal effect AMARE [7]: 90%; herbicidal effect KCHSC [9]: 90%; LOLRI, herbicidal effect in percent (%) (Lolium rigidum (LOLRI)): 90% |
| C=CCNC(=O)CNc1nc2nc(-c3ccccc3F)c(Br)cc2s1 [Example I-067] | – | 90 | – | – | – | – |
| CCc1cc2sc(S)nc2nc1-c1ccccc1 [Example I-162] | 90 | 90 | 100 | – | – | herbicidal effect VERPE (Veronica persica (VERPE) [10]): 90%; herbicidal effect KCHSC [4]: 90% |
| CSc1nc2nc(-c3ccccc3C)c(C)cc2s1 [Example I-043] | – | 100 | 90 | – | 90 | herbicidal effect AMARE [7]: 90%; DIGSA, herbicidal effect in percent (%) [12]: 90%; herbicidal effect KCHSC [9]: 90%; herbicidal effect VERPE (Veronica persica (VERPE) [10]): 100%; herbicidal effect KCHSC [4]: 90% |
| CCc1cc2sc(S)nc2nc1C1=CCCCC1 [Example I-176] | 90 | – | 90 | – | 100 | DIGSA, herbicidal effect in percent (%) [12]: 90%; herbicidal effect KCHSC [9]: 90%; herbicidal effect KCHSC [4]: 90% |
| Cc1cc2sc(Cc3ccccc3F)nc2nc1-c1ccccc1 [Example I-056] | 100 | 100 | – | 100 | – | herbicidal activity POAAN (Poa annua (POAAN) [14]): 100% |
| COc1ccccc1-c1nc2nc(S)sc2cc1C [Example I-164] | – | – | 90 | 100 | 100 | herbicidal effect KCHSC [9]: 90% |
| Fc1ccccc1-c1nc2nc(S)sc2cc1Br [Example I-156, 6-bromo-5-(2-fluorophenyl)thiazolo[4,5-b]pyridine-2-thiol] | 90 | 100 | – | – | – | – |
| NC(=O)c1nc2nc(-c3ccccc3F)c(Br)cc2s1 [Example I-154, 6-bromo-5-(2-fluorophenyl)thiazolo[4,5-b]pyridine-2-carboxamide] | 90 | 90 | 100 | 90 | – | herbicidal effect AMARE [7]: 90%; herbicidal effect KCHSC [4]: 90% |
| Cc1cc2scnc2nc1-c1c(C)sc(C)c1C [Example I-199] | 100 | 100 | – | – | – | herbicidal effect MATIN [11]: 90% |
| Cc1sc(Br)cc1-c1nc2ncsc2cc1Br [Example I-138] | 90 | – | 90 | 100 | 90 | LOLRI, herbicidal effect in percent (%) (Lolium rigidum (LOLRI)): 90%; herbicidal activity POAAN (Poa annua (POAAN) [14]): 90% |
| CCc1cc2sc([S+](C)[O-])nc2nc1-c1ccccc1 (stereo not drawn) [Example I-050] | 90 | 90 | 90 | 100 | – | herbicidal effect AMARE [7]: 90%; ECHCG, herbicidal effect in percent (%) [8]: 100%; herbicidal effect KCHSC [9]: 90%; LOLRI, herbicidal effect in percent (%) (Lolium rigidum (LOLRI)): 90%; herbicidal effect MATIN [11]: 90% |
| CCc1cc2sc(OC)nc2nc1-c1ccccc1OC [Example I-097] | – | – | 100 | – | 100 | herbicidal effect STEME (Stellaria media (STEME) [5]): 100% |
| CCc1cc2sc(S(C)(=O)=O)nc2nc1-c1ccccc1C [Example I-061] | 90 | – | – | – | – | herbicidal effect AMARE [7]: 90%; herbicidal effect VERPE (Veronica persica (VERPE) [10]): 90%; herbicidal effect KCHSC [4]: 90% |
